Data set [1] can be described thus: Volume of distribution at steady state in Sprague-Dawley rat at 2 mg/kg, iv and 3 mg/kg, po. The format is ADME, organism-based. The settings on record: in vivo, read-out: Vdss.
Data set [2] in a line: Cmax in Sprague-Dawley rat at 2 mg/kg, iv and 3 mg/kg, po. The format is ADME, organism-based. The settings on record: in vivo.
Data set [3] is described as follows: AUClast in Sprague-Dawley rat at 2 mg/kg, iv and 3 mg/kg, po. Type of data set: ADME, organism-based. The settings on record: plasma.
The nature of data set [4]: Oral bioavailability in Sprague-Dawley rat at 3 mg/kg. Type of data set: ADME, organism-based. The note with it: in vivo.
A short description of data set [5]: Ratio of drug level in brain to plasma in Sprague-Dawley rat at 3 mg/kg, po after 2 hrs. Type of data set: ADME, organism-based. Further details: dose 3 mg/kg, route oral. The settings on record: read-out: BPR.
Data set [6] can be described thus: Drug uptake in Sprague-Dawley rat brain at 3 mg/kg, po after 2 hrs. Type of data set: ADME, organism-based. The arrangement: dose 3 mg/kg, route oral. The note with it: read-out: Drug uptake.
Data set [7] can be described thus: Cmax in Sprague-Dawley rat at 3 mg/kg, po after 0.4 hrs. The format is ADME, organism-based. The arrangement: dose 3 mg/kg, route oral. The note with it: in vivo.
The subject of the next data set is Rattus norvegicus. The experiment in a line: Toxicity in rat assessed as reduction in core temperature at 0.3 mg/kg, ip. The format is organism-based. The arrangement: dose 0.3 mg/kg, route intraperitoneal. The note with it: in vivo.

A word on the Cmax: it is the peak of the concentration-time curve. As a reminder, the AUC(0-t) is the area under the concentration-time curve up to a stated or last time point. Higher therefore signals high exposure. A word on the bioavailability: it is the share of a dose that reaches the circulation, judged against a reference dose that is usually intravenous. A higher bioavailability goes with good availability. As for `CC(C)(CO)NC(=O)c1nn(-c2ccc(F)cc2F)c2c1C[C@H]1C[C@@H]21`, in data set [1], the Vd was 0.851 L/kg. Also, in data set [2], the concentration peaked (Cmax) at 808 ng/mL. The molecule also displayed an AUC(0-t) in data set [3] of 4480 ng·h/mL. Moreover, in data set [4], the bioavailability is 35.9%. Besides, the Kp at 2 h in data set [5] is 0.356. Besides, the concentration at 2 h in data set [6] came out at 623 ng/g.
In data set [7], `CC(C)(NC(=O)c1nn(C(C)(C)C)c2c1C[C@H]1C[C@@H]21)c1ccccc1` yielded a peak concentration (Cmax) of 33 ng/mL.
Regarding `CCCCCCC(C)(C)c1ccc([C@@H]2C[C@H](O)CC[C@H]2CCCO)c(O)c1` [CP-55940], in the data set with Rattus norvegicus, the T was over 2 °C.
